# Legend:
# [1] = test system: osteoblasts (monolayer culture); experiment: Metabolic activity (MTT), monolayer osteoblast cell culture; assay type: cell-based, rat; details: for metabolic activity measured by the MTT reaction / MTT reaction: preliminary
# Experimental: This isolation technique is based on the ability of osteoblasts to migrate from bone onto a substratum. Parietal and frontal calvariae (4 per animal) were aseptically explanted from 6 day-old IcoIbm rats. The calvariae were placed in Tyrode's balanced salt solution, calcium and magnesium free (TESS). The periosteum was enzymatically removed with 0.05% trypsin and 0.02% collagenase A (0.76 U/mg) dissolved in TBSS (40 calvaria/20 ml). The calvariae were shaken for 70 minutes in a waterbath at 37° C. They were washed with TESS and then transferred to 60 mm culture dishes (40 calvariae/dish) containing 5 ml of 0.02% collagenase A (0.76 U/mg) in culture medium BGJb Fitton-Jackson modification and placed in the incubator for 4 hours. The calvariae were then washed with culture medium B supplemented with 10% foetal calf serum (FCS). The calvariae were transferred into 60 mm culture dishes (4 frontal and 4 parietal/dish). The growth medium supplemented with 10% FCS and 50 μg/ml ascorbate was completely changed every 48 hours. The culture was kept for 3 weeks.
# After 3 weeks the migrated cells were harvested. The dish was washed with TESS, and 5 ml of TESS containing 0.05% trypsin and 0.02% collagenase A (0.76 U/mg) was added. After 1 hour in the incubator, the dish was washed with culture medium BGJb supplemented with 10% FCS. The dishes containing the calvariae and cells were rinsed with serum containing media BGJb. The cells obtained were filtered through a 40 μm nylon mesh to remove bone debris and cell aggregates. The suspended cells were centrifuged at 600 g for 5 minutes. The cell pellet was resuspended in serum containing medium BGJb and centrifuged. The viability of the resuspended cells was examined by the dye exclusion of 0.4% trypan blue, and the cells were counted in a haeinocytometer. The inoculation densities were 2·10^5/10 cm^2 for monolayer and 2·10^5/30 μl for micromasses. The micromass cultures were kept for 1 hour in the incubator before 2 ml growth medium was added.
# All the cultures were kept at 37° C. in a humidified atmosphere of 5% CO2, 95% air. All culture media were supplemented with 50 μg/ml ascorbate. To analyze the collagen types, 60 μg/ml beta-aminopropionitrile (beta-APN) was added to the culture medium. During cell isolation and inoculation, no ascorbate was used to increase plating efficiency. No antibiotics and no beta-glycerophosphate were added. The media were completely changed every 48 hours (60 mm culture dish 5 ml; 35 mm culture dish 2 ml).
# The Böhringer Cell Proliferation Kit I (MTT) was used for the assay, but we used a different solvent to dissolve the MTT crystals.
# Originally, Mosmann, 1983 described the general principle involved in the detection of cell growth/cell death as indicated by the conversion of the tetrazolium salt (MTT) to the colored formazan by mitochondrial dehydrogenases. The concentration of this can then be measured spectrophotoinetrically.
# 1. MTT Stock (5 mg/ml in sterile PBS) from Böhringer was diluted […] with complete growth medium and sterile filtering.
# 2. The cells were incubated in 2 ml/10 cm^2 MTT solution at 37° C. for 3 hours.
# 3. The supernatant was carefully removed.
# 4. 4 ml/10 cm^2 dimethylsulphoxide (DMSO) was added.
# 5. The dishes were placed on a shaker until the crystals were completely dissolved.
# 6. The absorbance of the supernatant (3 aliquots/dish) was read at 550 nm versus DMSO.
# If the absorbance was higher than 1, the samples were diluted with DMSO.
# The mean value and the standard deviation consisted of n independent experiments. The values for the individual experiments were gained from the mean of 3 aliquots of the same dish. To compare the treatment, contrasts analysis of variance models were evaluated.
# embryonic rat femora = experiment: Embryonic rat femora wet weight in organ culture
# Experimental: The rats were sacrificed on the 17th to 18th day of pregnancy. The embryos were aseptically removed from the uterus, and both femora were carefully dissected free into sterile TBSS under the stereo-microscope. Organ-culture of the rudiments was performed in 10 cm^2 plastic culture dishes. A Teflon carrier with a nylon mesh (20 μm pore size) was mounted in the dish, keeping the explants floating and ensuring optimal gas exchange and nutritional conditions. The right and the left femora from each animal were randomly assigned to the experimental or control group. The control groups were kept in 3 ml B with 50 μg/ml ascorbate. In the experimental group, the growth medium was supplemented with either 10 mM creatine, 20 mM creatine, 1 mM GPA, 5 mM GPA, or 10 mM GPA. The growth medium was renewed every second day until day 10. Culture was carried out at 37.5° C. and in a 5% CO2 atmosphere. At 10 days, the wet weight of each femora was determined on a microbalance. The result of each experimental femora was expressed relative to its collateral control. For the histological evaluation, the femora as fixed in 4% formaldehyde, dehydrated, and embedded in methylmethacrylate. The 6 μm sections were stained by Pentachrome-Movat.
Compound,"effects on the metabolism and the viability of the cells ([1]; GPA-treated osteoblasts, summary)","metabolic activity measured by the MTT reaction ([1]; 2 weeks, 10 mM GPA vs control)","MTT reaction ([1]; 3 weeks, 1 mM or 5 mM GPA vs control)","MTT reaction ([1]; 3 weeks, 10 mM GPA vs control)",wet weight of femora (FIG. 5) (embryonic rat femora; 1 mM GPA vs control),"wet weight of femora (FIG. 5) (embryonic rat femora; 5 mM GPA vs control, p<0.0005)","wet weight of femora (FIG. 5) (embryonic rat femora; 10 mM GPA vs control, p<0.015)","metabolic activity (MTT) (FIG. 2) ([1]; 10 mM and 20 mM creatine vs control, 1 week)","metabolic activity (MTT) (FIG. 2) ([1]; 10 mM creatine vs control, 2 weeks, p<0.015)","metabolic activity (MTT) (FIG. 2) ([1]; 10 mM creatine vs control, 3 weeks, p<0.001)","metabolic activity (MTT) (FIG. 2) ([1]; 20 mM creatine vs control, 2 weeks, p<0.0025)","metabolic activity (MTT) (FIG. 2) ([1]; 20 mM creatine vs control, 3 weeks, p<0.001)","metabolic activity measured by the MTT reaction ([1]; 2 weeks, creatine groups vs control)","MTT reaction ([1]; 3 weeks, creatine vs control)","wet weight of femora (FIG. 5) (embryonic rat femora; 10 mM creatine vs control, p<0.0005)","wet weight of femora (FIG. 5) (embryonic rat femora; 20 mM creatine vs control, p<0.001)"
"N=C(N)NCCC(=O)O [GPA, beta-guanidinopropionic acid]",adverse effects on both the metabolism and the viability of the cells,lower values than the control,lower values than the control,comparable to the control,not significantly different from the control,control (FIG. 5) had significantly lower wet weights than,control (FIG. 5) had significantly lower wet weights than,–,–,–,–,–,–,–,–,–
CN(CC(=O)O)C(=N)N [creatine],–,–,–,–,–,–,–,all groups were similar,control group was significantly lower than the 10 mM creatine,significantly higher than the control group,control group was significantly lower than the 10 mM creatine and the 20 mM creatine,significantly higher than the control group,slightly stimulated,stimulated the MTT reaction,control (FIG. 5) had significantly lower wet weights than,control (FIG. 5) had significantly lower wet weights than
